Patent US9932627B2, “Method for determination of the length of the G-tail sequence and kit for the method” (HIROSHIMA UNIVERSITY, priority 2005, dated 2018)

Assays:
[1] = system: SiHa cancer cell; test: Entire telomere length by telomere HPA on denatured DNA (JP 2001-95586, Comparative Example); format: cell-based, human; conditions: treated with telomestatin (5 μm) for 48 hours, denatured DNA 0.5 μg, control C = 4500
From the text: (§1) The dominant negative allelic gene (TRF2^ΔBΔM) was infected to various cells (HeLa cancer cell, SiHa cancer cell, MCF-7 cancer cell, MRC-5-hTERT normal fibroblast, and 90p normal mammary epithelial cell) according to a method similar to that in <9-3>; The nondenatured DNA was isolated from each cell (HeLa cancer cell, SiHa cancer cell, MCF-7 cancer cell, MRC-5-hTERT normal fibroblast, and 90p normal mammary epithelial cell) according to a method similar to that in <4-2>; The nondenatured DNA (5 μg) was used in the G tail measuring method according to the present invention for measurement of the G tail length; and, as a Comparative Example, the measuring method described in Japanese Unexamined Patent Publication No. 2001-95586 was applied to each denatured DNA (0.5 μg) for measurement of the entire telomere length. ExoI treatment was performed similarly to the method described in <4-3> and culture of the cells used, similarly to the method described in <9-2>.
FIG. 11a is a graph showing the results of measuring G tail by the measuring method according to the invention. FIG. 11b is a graph showing the results of measuring the total telomere length by the measuring method described in Japanese Unexamined Patent Publication No. 2001-95586 as a Comparative Example. […]

[2] = system: MRC-5-hTERT normal fibroblast; test: G tail length measurement by G tail HPA on nondenatured genomic DNA of treated cells; format: cell-based; conditions: treated with telomestatin (5 μm) for 48 hours, nondenatured DNA 5 μg, control C = 96
Description: (§2) The hydrolysis of the AE in an unhybridized probe was performed by charging 300 μL of a hydrolysis buffer (0.6 mol/L tetrasodium borate buffer containing 50 mL/L of Triton X-100, pH 8.5) into each reaction tube, stirring the mixture vigorously with a Vortex mixer, and incubating the mixture at 60° C. for 10 minutes. The AE in the hybridized probe was not hydrolyzed under the above-described condition. These tubes were cooled on ice for 1 minute or more, and the chemiluminescence in each tube was measured with a luminometer (trade name: Leader 1, manufactured by Gene Probe Inc.) for 2 seconds.
(§3) For the confirmation of nondenatured genomic DNA dose response by the measuring method according to the invention, SiHa cancer cell line-derived nondenatured genomic DNA samples in various amounts (1 μg, 3 μg, 5 μg, 10 μg and 20 μg) and the AE-labeled G tail HPA probe in an amount of 3×10^6 rlu were hybridized with each other. Specifically for detection of the telomere 3′-tail (G tail) in genomic DNA, the total amount of the DNA solution in a Falcon 352053 tube (trade name) was adjusted to 100 μL with sterile water or a TE buffer (10 mM Tris/HCl, 1 mM EDTA, pH 8.0). The AE-labeled G tail HPA probe in an amount of 3×10^6 rlu dissolved in 100-μL of the hybridization buffer was added to the DNA solution, and the mixture was stirred thoroughly with a Vortex mixer and incubated at 60° C. for 20 minutes. The hydrolysis of the AE in unhybridized probe and the detection of the chemiluminescence were performed under a condition similar to that in <1-2>.
(§4) In the present invention, the nondenatured genomic DNA may not be isolated for use, but the nondenatured genomic DNA used in the confirmation test <4-1> was previously isolated in the following manner: The nondenatured genomic DNA used for G tail length measurement was isolated from each cell line by using the phenol-chloroform extraction method. Specifically, cells were centrifuged in an Eppendorf-micro centrifuge tube at 6,000 rpm and 4° C. for 5 minutes, to give a pellet in the microtube. The pellet was washed once with PBS(−) and resuspended in an extraction buffer containing 10 mM Tris buffer (pH 7.6), 150 mM NaCl and NP-40, to a final concentration of 0.5%. After proteinase K digestion, phenol-chloroform extraction was performed twice. The genomic DNA was precipitated with ethanol, treated with RNase A, and then, dissolved in a TE buffer. […]

[3] = system: MCF-7 cancer cell; test: as above; format: cell-based; conditions: treated with telomestatin (5 μm) for 48 hours, nondenatured DNA 5 μg, control C = 212
Description: as §2, §3, §4

[4] = system: HeLa cancer cell; test: as above; format: cell-based; conditions: treated with telomestatin (5 μm) for 48 hours, nondenatured DNA 5 μg, control C = 126
Description: as §2, §3, §4

[5] = system: 90p normal mammary epithelial cell; test: as above; format: cell-based; conditions: treated with telomestatin (5 μm) for 48 hours, nondenatured DNA 5 μg, control C = 98
Description: as §2, §3, §4

[6] = system: SiHa cancer cell; test: as above; format: cell-based, human; conditions: treated with telomestatin (5 μm) for 48 hours, nondenatured DNA 5 μg, control C = 220
Description: as §2
For the confirmation of nondenatured genomic DNA dose response by the measuring method according to the invention, SiHa cancer cell line-derived nondenatured genomic DNA samples in various amounts (1 μg, 3 μg, 5 μg, 10 μg and 20 μg) and the AE-labeled G tail HPA probe in an amount of 3×10^6 rlu were hybridized with each other. Specifically for detection of the telomere 3′-tail (G tail) in genomic DNA, the total amount of the DNA solution in a Falcon 352053 tube (trade name) was adjusted to 100 μL with sterile water or a TE buffer (10 mM Tris/HCl, 1 mM EDTA, pH 8.0). […]

[7] = system: MRC-5-hTERT normal fibroblast; test: Entire telomere length by telomere HPA on denatured DNA (JP 2001-95586, Comparative Example); format: cell-based; conditions: treated with telomestatin (5 μm) for 48 hours, denatured DNA 0.5 μg, control C = 6800
From the text: as §1
(§5) FIG. 11a is a graph showing the results of measuring G tail by the measuring method according to the invention. FIG. 11b is a graph showing the results of measuring the total telomere length by the measuring method described in Japanese Unexamined Patent Publication No. 2001-95586 as a Comparative Example. In FIG. 11a, “C” represents a control; “T” represents a cell treated with a G tail-shortening medicine telomestatin (5 μm) for 48 hours; represents a ExoI-treated cell; and − represents an untreated cell. […] In FIG. 11b, “C” represents a control; and “T” represents a cell previously treated with a G tail-shortening medicine telomestatin (5 μm) for 48 hours.
(§6) Thus apparently in the measuring method described in Patent Document 1 (Japanese Unexamined Patent Publication No. 2001-95586), the G tail length gives signal intensity only at a noise level within the range of the operation and measurement error, prohibiting G tail measurement. Then, the values on the ordinate in FIG. 11a were converted to average G tail lengths by using the calibration curve shown in FIG. 2 and the values on the ordinate in FIG. 11b to the entire telomere lengths, to give the following results shown in Table 4.

[8] = system: MCF-7 cancer cell; test: as above; format: cell-based; conditions: treated with telomestatin (5 μm) for 48 hours, denatured DNA 0.5 μg, control C = 4000
From the text: as §1, §5, §6

[9] = system: HeLa cancer cell; test: as above; format: cell-based; conditions: treated with telomestatin (5 μm) for 48 hours, denatured DNA 0.5 μg, control C = 4700
From the text: as §1, §5, §6

[10] = system: 90p normal mammary epithelial cell; test: as above; format: cell-based; conditions: treated with telomestatin (5 μm) for 48 hours, denatured DNA 0.5 μg, control C = 3500
From the text: as §1, §5, §6

SMILES: Cc1oc2nc1-c1nc(co1)-c1nc(co1)-c1nc(co1)-c1nc(co1)-c1nc(co1)C1=NC(CS1)c1nc-2c(C)o1 (stereo not shown) [telomestatin]
- Entire telomere length (nt) [1]: 4600 nt
- Average G tail length (nt) [2]: 96.5 nt
- Average G tail length (nt) [3]: 162 nt
- Average G tail length (nt) [4]: 89 nt
- Average G tail length (nt) [5]: 96 nt
- Average G tail length (nt) [6]: 121 nt
- Entire telomere length (nt) [7]: 6750 nt
- Entire telomere length (nt) [8]: 3900 nt
- Entire telomere length (nt) [9]: 4600 nt
- Entire telomere length (nt) [10]: 3450 nt
